“Also recorded” adds a separate entry of the source. Read-outs that look alike come from different tables or passages of the source. Residues, ends and D or L forms follow the SMILES beside them.

Assay [1] has as its target T1, TBC1D23 C-terminal domain (Mus musculus, UniProt Q8K0F1).
T1 construct: TBC1D23 C-terminal domains were gel-filtered into buffer; GST (N, cleaved yes); made in house; host or cells: E. coli BL21 pLysS
The assay can be described thus: ITC of cargo and mutant syntaxin-16 peptides binding to wild-type TBC1D23 C-terminal domain. The conditions noted are these: for Kd / KD (μM): 20°C; for KD (μM): peptide (0.8-5 mM) titrated into 100 μM domain, 100 mM NaCl, 100 mM tris pH 7.4, 1 mM TCEP, mean of three independent runs. The method, then: (§1) Experiments were performed using a Nano ITC machine from TA Instruments. TBC1D23 C-terminal domains were gel-filtered into buffer composed of 100 mM NaCl, 100 mM tris (pH 7.4), and 1 mM tris(2-carboxyethyl)phosphine (TCEP). Peptides were dissolved in the same batch of buffer. Both the wild-type and mutant C-terminal domains were concentrated to 100 μM (1.4 mg/ml) with peptide concentration varying between 0.8 and 5 mM (depending on the peptide). Peptides were titrated into TBC1D23 C-terminal domains with 20 injections of 2.4 μl each separated by 300-s intervals. Experiments were conducted at 20°C. […] Data were exported to GraphPad Prism for figure generation.
(§2) Recombinant proteins were expressed in BL21 plyS E. coli grown in shaking 2× TY medium at 37°C. Expression was induced with 0.2 mM IPTG, and cells were grown overnight at 22°C. Cells were resuspended in buffer A [250 mM NaCl, 20 mM tris (pH 7.4), and 1 mM DTT] supplemented with 4-benzenesulfonyl fluoride hydrochloride, MnCl2 and deoxyribonuclease I. Cell pellets were lysed using a cell disruptor (Constant Systems) before clarification by ultracentrifugation (104,350 relative centrifugal force) for 45 min. The supernatant was batch bound to glutathione-Sepharose resin (Cytiva) in buffer A before washing with 400 ml of buffer A and overnight cleavage of the GST-tag with thrombin at room temperature. The resultant flow through was concentrated for gel filtration Superdex 200 column (GE Healthcare) into either buffer A for crystallization or into ITC buffer [100 mM NaCl, 100 mM tris (pH 7.4), and 1 mM TCEP].

The target in assay [2] is T2, TBC1D23 C-terminal domain K672A (Mus musculus, UniProt Q8K0F1, K672A).
T2 construct: Both the wild-type and mutant C-terminal domains were concentrated to 100 μM; GST (N, cleaved yes); made in house; host or cells: E. coli BL21 pLysS
T2 sequence (Q8K0F1 559-684 K672A limits assumed): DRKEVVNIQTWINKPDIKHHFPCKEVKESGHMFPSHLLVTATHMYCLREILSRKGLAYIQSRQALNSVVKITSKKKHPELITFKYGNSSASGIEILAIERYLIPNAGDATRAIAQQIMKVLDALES
Briefly: ITC of syntaxin-16 peptide binding to TBC1D23 C-terminal domain mutant K672A. The conditions noted are these: mean of three runs, read-out: Mean affinity. The method, then:
as §1
as §2, with “The resultant flow through was concentrated for gel filtration Superdex 200 column (GE Healthcare) into either buffer A for crystallization or into ITC buffer [100 mM NaCl, 100 mM tris (pH 7.4), and 1 mM TCEP].” left out

The target in assay [3] is T3, TBC1D23 C-terminal domain V626D (Mus musculus, UniProt Q8K0F1, V626D).
T3 construct: Both the wild-type and mutant C-terminal domains were concentrated to 100 μM; GST (N, cleaved yes); made in house; host or cells: E. coli BL21 pLysS
T3 sequence (Q8K0F1 559-684 V626D limits assumed): as the sequence (Q8K0F1 559-684 K672A limits assumed) above, with V68D, A114K counted along it
The assay can be described thus: ITC of syntaxin-16 peptide binding to TBC1D23 C-terminal domain mutant V626D. The method, then:
as §1
as §2, with “The resultant flow through was concentrated for gel filtration Superdex 200 column (GE Healthcare) into either buffer A for crystallization or into ITC buffer [100 mM NaCl, 100 mM tris (pH 7.4), and 1 mM TCEP].” left out

Assay [4] has as its target T4, TBC1D23 C-terminal domain I675W (Mus musculus, UniProt Q8K0F1, I675W).
T4 construct: GST (N, cleaved yes); made in house; host or cells: E. coli BL21 pLysS
The assay can be described thus: ITC of syntaxin-16 peptide binding to TBC1D23 C-terminal domain mutant I675W. The method, then:
as §1
as §2, with “The resultant flow through was concentrated for gel filtration Superdex 200 column (GE Healthcare) into either buffer A for crystallization or into ITC buffer [100 mM NaCl, 100 mM tris (pH 7.4), and 1 mM TCEP].” left out

Setting [5] is: pH 7.4, mean of three runs, read-out: Mean affinity.
Setting [6] is: pH 7.4, bound given for peptides without measurable binding, read-out: Affinity.
The mark [7] stands for this setting: bound, no measurable binding, read-out: Affinity.

T1 sequence (Q8K0F1 559-684 limits assumed): as the sequence (Q8K0F1 559-684 K672A limits assumed) above, with A114K counted along it
T4 sequence (Q8K0F1 559-684 I675W limits assumed): as the sequence (Q8K0F1 559-684 K672A limits assumed) above, with A114K, I117W counted along it

In the case of `CC[C@H](C)[C@H](NC(=O)[C@@H](NC(=O)[C@H](CC(=O)O)NC(=O)[C@H](CCC(N)=O)NC(=O)[C@H](CC(=O)O)NC(=O)[C@H](CO)NC(=O)[C@H](CC(=O)O)NC(=O)[C@H](Cc1ccccc1)NC(=O)[C@H](CCC(=O)O)NC(=O)[C@H](CO)NC(=O)[C@@H](N)CCC(=O)O)[C@@H](C)O)C(=O)N[C@@H](Cc1ccccc1)C(=O)O` [KIAA0319_TIF] (H-ESEFDSDQDTIF-OH), the Kd in assay [1] (setting [5]) was 35.2 µM.

Take `CC(C)[C@H](NC(=O)[C@@H](NC(=O)[C@H](CCC(=O)O)NC(=O)[C@H](CCC(=O)O)NC(=O)[C@H](CC(=O)O)NC(=O)[C@H](CO)NC(=O)[C@@H](N)CC(=O)O)[C@@H](C)O)C(=O)N[C@@H](Cc1ccccc1)C(=O)N[C@@H](CCC(=O)O)C(=O)N[C@@H](CO)C(=O)O` [FAM174C_TVF] (H-DSDEETVFES-OH): the Kd in assay [1] (setting [5]) is 15.7 µM.

Regarding `CC(C)[C@H](NC(=O)[C@@H](NC(=O)[C@H](Cc1ccccc1)NC(=O)[C@H](CC(=O)O)NC(=O)CNC(=O)[C@H](CC(=O)O)NC(=O)[C@H](CCC(=O)O)NC(=O)[C@H](CC(N)=O)NC(=O)[C@H](CCC(=O)O)NC(=O)[C@H](CCC(=O)O)NC(=O)[C@@H](N)CC(=O)O)[C@@H](C)O)C(=O)N[C@@H](Cc1ccc(O)cc1)C(=O)N[C@@H](CCC(=O)O)C(=O)N[C@@H](CS)C(=O)O` [NPDC1_TVY] (H-DEENEDGDFTVYEC-OH), the Kd in assay [1] (setting [5]) is 2.91 µM.

For the molecule `CC(C)C[C@H](NC(=O)[C@@H](NC(=O)[C@H](CCC(=O)O)NC(=O)[C@H](CCC(=O)O)NC(=O)[C@@H](N)CCC(=O)O)[C@@H](C)O)C(=O)N[C@@H](Cc1ccc(O)cc1)C(=O)N[C@@H](CO)C(=O)N[C@@H](CO)C(=O)N[C@@H](CCCCN)C(=O)N[C@@H](Cc1c[nH]cn1)C(=O)O` [CPD_TLY] (H-EEETLYSSKH-OH), the Kd in assay [1] (setting [5]) was found to be 10.6 µM.

For `CC(C)C[C@H](NC(=O)[C@@H](NC(=O)[C@H](CC(N)=O)NC(=O)[C@H](CC(=O)O)NC(=O)[C@@H](N)CC(=O)O)[C@@H](C)O)C(=O)N[C@@H](CO)C(=O)N[C@@H](Cc1c[nH]cn1)C(=O)N[C@@H](CCCNC(=N)N)C(=O)NCC(=O)N[C@@H](Cc1ccccc1)C(=O)N[C@H](C(=O)N[C@@H](CCC(=O)O)C(=O)N[C@@H](CC(=O)O)C(=O)O)[C@@H](C)O` [STX16_YtoS] (H-DDNTLSHRGFTED-OH; N-terminus and C-terminus assumed), the Kd in assay [1] (setting [6]) was more than 200 µM. Moreover, the “KD (μM)” value in assay [1] is given as “No binding”.

With `CC(C)C[C@H](NC(=O)[C@@H](NC(=O)[C@H](CC(N)=O)NC(=O)[C@H](CC(=O)O)NC(=O)[C@@H](N)CC(=O)O)[C@@H](C)O)C(=O)N[C@@H](Cc1c[nH]c2ccccc12)C(=O)N[C@@H](Cc1c[nH]cn1)C(=O)N[C@@H](CCCNC(=N)N)C(=O)NCC(=O)N[C@@H](Cc1ccccc1)C(=O)N[C@H](C(=O)N[C@@H](CCC(=O)O)C(=O)N[C@@H](CC(=O)O)C(=O)O)[C@@H](C)O` [STX16_YtoW] (H-DDNTLWHRGFTED-OH), the Kd in assay [1] (setting [5]) amounted to 5.64 µM.

With `CC(C)C[C@H](NC(=O)[C@@H](NC(=O)[C@H](CC(N)=O)NC(=O)[C@H](C)NC(=O)[C@H](C)N)[C@@H](C)O)C(=O)N[C@@H](Cc1ccc(O)cc1)C(=O)N[C@@H](Cc1c[nH]cn1)C(=O)N[C@@H](CCCNC(=N)N)C(=O)NCC(=O)N[C@@H](Cc1ccccc1)C(=O)N[C@H](C(=O)N[C@@H](CCC(=O)O)C(=O)N[C@@H](CC(=O)O)C(=O)O)[C@@H](C)O` [STX16_DDAA] (H-AANTLYHRGFTED-OH; N-terminus and C-terminus assumed), the Kd in assay [1] (setting [6]) was more than 200 µM.

For `CC(C)C[C@H](NC(=O)[C@H](C)NC(=O)[C@H](CC(N)=O)NC(=O)[C@H](CC(=O)O)NC(=O)[C@@H](N)CC(=O)O)C(=O)N[C@@H](Cc1ccc(O)cc1)C(=O)N[C@@H](Cc1c[nH]cn1)C(=O)N[C@@H](CCCNC(=N)N)C(=O)NCC(=O)N[C@@H](Cc1ccccc1)C(=O)N[C@H](C(=O)N[C@@H](CCC(=O)O)C(=O)N[C@@H](CC(=O)O)C(=O)O)[C@@H](C)O` [STX16_TtoA] (H-DDNALYHRGFTED-OH; N-terminus and C-terminus assumed), the Kd in assay [1] (setting [6]) was more than 200 µM. Besides, the “KD (μM)” value in assay [1] is “No binding”.

On to `CC(C)C[C@H](NC(=O)[C@@H](NC(=O)[C@H](CC(N)=O)NC(=O)[C@H](CC(=O)O)NC(=O)[C@@H](N)CC(=O)O)[C@@H](C)O)C(=O)N[C@@H](Cc1ccc(O)cc1)C(=O)N[C@@H](Cc1c[nH]cn1)C(=O)N[C@@H](CCCNC(=N)N)C(=O)NCC(=O)N[C@@H](Cc1ccccc1)C(=O)N[C@H](C(=O)N[C@@H](CCC(=O)O)C(=O)N[C@@H](CC(=O)O)C(=O)O)[C@@H](C)O` [STX16_TLY] (H-DDNTLYHRGFTED-OH), for which the Kd in assay [2] is 27.6 µM; in assay [3] (setting [7]), more than 200 µM; in assay [4] (setting [7]), more than 200 µM. The “KD (μM)” value is “abolishes peptide binding; also recorded: No binding” in assay [3] (20°C, pH 7.4, figure and text, listed as syntaxin-16 peptide); “No binding” in assay [4] (20°C, pH 7.4, figure and text).

For the molecule `CC(C)[C@H](NC(=O)[C@@H](NC(=O)[C@H](CO)NC(=O)[C@H](Cc1ccc(O)cc1)NC(=O)[C@@H](NC(=O)[C@@H](NC(=O)[C@H](CC(N)=O)NC(=O)[C@H](C)NC(=O)[C@@H]1CCCN1C(=O)[C@H](CC(=O)O)NC(=O)[C@@H](N)CCC(=O)O)[C@@H](C)O)C(C)C)[C@@H](C)O)C(=O)N[C@@H](CCC(=O)O)C(=O)O` [SLAMF7_TVY] (H-EDPANTVYSTVE-OH; N-terminus and C-terminus assumed), in assay [1] (setting [6]), the Kd was more than 200 µM. For the same molecule, the “KD (μM)” value in assay [1] is recorded as “no binding”.

On to `C[C@@H](O)[C@H](NC(=O)[C@H](Cc1ccccc1)NC(=O)CNC(=O)[C@H](CCCNC(=N)N)NC(=O)[C@H](Cc1c[nH]cn1)NC(=O)[C@H](Cc1ccc(O)cc1)NC(=O)[C@H](Cc1ccccc1)NC(=O)[C@@H](NC(=O)[C@H](CC(N)=O)NC(=O)[C@H](CC(=O)O)NC(=O)[C@@H](N)CC(=O)O)[C@@H](C)O)C(=O)N[C@@H](CCC(=O)O)C(=O)N[C@@H](CC(=O)O)C(=O)O` [STX16_LtoF] (H-DDNTFYHRGFTED-OH), for which, in assay [1] (setting [5]), the Kd was determined as 151 µM.

Turning to `C[C@@H](O)[C@H](NC(=O)[C@H](Cc1ccccc1)NC(=O)CNC(=O)[C@H](CCCNC(=N)N)NC(=O)[C@H](Cc1c[nH]cn1)NC(=O)[C@H](Cc1ccc(O)cc1)NC(=O)[C@H](CO)NC(=O)[C@@H](NC(=O)[C@H](CC(N)=O)NC(=O)[C@H](CC(=O)O)NC(=O)[C@@H](N)CC(=O)O)[C@@H](C)O)C(=O)N[C@@H](CCC(=O)O)C(=O)N[C@@H](CC(=O)O)C(=O)O` [STX16_LtoS] (H-DDNTSYHRGFTED-OH; N-terminus and C-terminus assumed), in assay [1] (setting [6]), the Kd is more than 200 µM. For the same molecule, the “KD (μM)” value in assay [1] is “No binding”.

With `C[C@H](NC(=O)[C@@H](NC(=O)[C@H](CC(N)=O)NC(=O)[C@H](CC(=O)O)NC(=O)[C@@H](N)CC(=O)O)[C@@H](C)O)C(=O)N[C@@H](Cc1ccc(O)cc1)C(=O)N[C@@H](Cc1c[nH]cn1)C(=O)N[C@@H](CCCNC(=N)N)C(=O)NCC(=O)N[C@@H](Cc1ccccc1)C(=O)N[C@H](C(=O)N[C@@H](CCC(=O)O)C(=O)N[C@@H](CC(=O)O)C(=O)O)[C@@H](C)O` [STX16_LtoA] (H-DDNTAYHRGFTED-OH; N-terminus and C-terminus assumed), the “reduction of binding relative to wild-type syntaxin-16 peptide” value in assay [1] is listed as more than 100 fold. Also, the Kd in assay [1] (setting [6]) is more than 200 µM.

For the molecule `CSCC[C@H](NC(=O)[C@H](CC(C)C)NC(=O)[C@H](Cc1c[nH]c2ccccc12)NC(=O)[C@H](CCC(=O)O)NC(=O)[C@@H](NC(=O)[C@H](CCC(=O)O)NC(=O)[C@H](CC(N)=O)NC(=O)[C@H](CCC(=O)O)NC(=O)[C@H](CC(=O)O)NC(=O)[C@@H](NC(=O)[C@H](CCC(=O)O)NC(=O)[C@H](CCC(=O)O)NC(=O)[C@@H](N)CCC(=O)O)[C@@H](C)O)[C@@H](C)O)C(=O)O` [CIMPR_WLM] (H-EEETDENETEWLM-OH; N-terminus and C-terminus assumed), the Kd in assay [1] (setting [6]) was more than 200 µM. Also, in assay [1], the “KD (μM)” value was “no binding”.

For the origin of these results see PMC11093223, “Cargo selective vesicle tethering: The structural basis for binding of specific cargo proteins by the Golgi tether component TBC1D23” (Science Advances, 2024).
